Results taken from patent publication US9073903B2, “Imidazole-2,4-dione inhibitors of casein kinase 1” (Jasco Pharmaceuticals, LLC, priority 2010, dated 2015).
Like-named read-outs stand apart in the source and are kept apart here.

Key:
DU145 cells = test: Inhibition of DU145 cells (MTS cell proliferation); type: cell-based; conditions: for inhibition at 0.4 µM / inhibition at 0.8 µM / inhibition at 1.6 µM / inhibition at 3.2 µM / inhibition at 6.25 µM / inhibition at 12.5 µM / inhibition at 25 µM / inhibition at 50 µM / inhibition at 100 µM / IC50: Homo sapiens, DU-145; for inhibition at 0.4 µM: 0.400 uM; for inhibition at 0.8 µM: 0.800 uM; for inhibition at 1.6 µM: 1.600 uM; for inhibition at 3.2 µM: 3.200 uM; for inhibition at 6.25 µM: 6.250 uM; for inhibition at 12.5 µM: 12.500 uM
Method: Inhibition of DU145 Cells Cells: DU145 cells, ATCC Passage unknown, Mycoplasma free. Medium: DMEM Medium (GIBCO Cat #11995073) supplemented with 10% fetal bovine serum (Hyclone Cat #SH30396.03). Seeding: 750 cells/well (100 μL) into 96-wells plate, incubated overnight at 37° C. in a humidified, 5% CO2 atmosphere. Treatment: Test compounds and Gemcitabine were prepared in a serial dilution (1:2) by culture medium. Fifty microliters (50 uL) of serially diluted solutions were added into each well. The final concentrations of the positive control and test compounds were shown in the graphs. The cells were incubated for 72 hours after addition of the test compounds. MTS: 15 uL of MTS solution (Promega Cat #G5430) was added into each well and incubated with cells for 4 hours at 37° C. in a humidified, 5% CO2 atmosphere. Measurement: Absorbance at 490 nm was measured using MD Spectramax Plus384 spectrophotometer. The regression curves were calculated by the GraphPad Prism 5 using “log(inhibitor) vs response—variable slope”.

PC-3 cells = test: Inhibition of PC-3 cells (MTS cell proliferation); type: cell-based; conditions: for OD value 1 / OD value 2: 490 nm; for OD value 1 / OD value 2 / inhibition at 0.4 µM / inhibition at 0.8 µM / inhibition at 1.6 µM / inhibition at 3.2 µM / inhibition at 6.25 µM / inhibition at 12.5 µM / inhibition at 25 µM / inhibition at 50 µM / inhibition at 100 µM: 72 h; for inhibition at 0.4 µM / inhibition at 0.8 µM / inhibition at 1.6 µM / inhibition at 3.2 µM / inhibition at 6.25 µM / inhibition at 12.5 µM / inhibition at 25 µM / inhibition at 50 µM / inhibition at 100 µM / IC50: Homo sapiens, PC-3
Method: Inhibition of PC-3 Cells: Cells: PC-3 cells, ATCC Passage unknown, Mycoplasma free. Medium: DMEM Medium (GIBCO Cat #11995073) supplemented with 10% fetal bovine serum (Hyclone Cat #SH30396.03). Seeding: 3,000 cells/well (100 ul) into 96-wells plate, incubated overnight at 37° C. in a humidified, 5% CO2 atmosphere. Treatment: Test compounds and Gemcitabine were prepared in a serial dilution (1:2) by culture medium. Fifty microliters (50 uL) of serially diluted solutions were added into each well. The final concentrations of the positive control and test compounds were shown in the graphs. The cells were incubated for 72 hours after addition of the test compounds. MTS: 15 uL of MTS solution (Promega Cat #G5430) was added into each well and incubated with cells for 4 hours at 37° C. in a humidified, 5% CO2 atmosphere. Measurement: Absorbance at 490 nm was measured using MD Spectramax Plus384 spectrophotometer. The regression curves were calculated by the GraphPad Prism 5 using “log(inhibitor) vs response—variable slope”. Calculation: % of inhibition=(ODzero ctrl−OD compound)/ODzero ctrl*100.

[1] = 72 hours, replicate 1, read-out: % of inhibition 1
[2] = 72 hours, replicate 2, read-out: % of inhibition 2

Q: Which results are given for Nc1ccn([C@@H]2O[C@H](CO)[C@@H](O)C2(F)F)c(=O)n1 [Gemcitabine]?
A: inhibition at 0.4 µM (DU145 cells; [1]): 17.4%; inhibition at 0.4 µM (DU145 cells; [2]): 15.6%; inhibition at 0.8 µM (DU145 cells; [1]): 35.2%; inhibition at 0.8 µM (DU145 cells; [2]): 32.9%; inhibition at 1.6 µM (DU145 cells; [1]): 59%; inhibition at 1.6 µM (DU145 cells; [2]): 54.3%; inhibition at 3.2 µM (DU145 cells; [1]): 95.5%; inhibition at 3.2 µM (DU145 cells; [2]): 96.2%; inhibition at 6.25 µM (DU145 cells; [1]): 96.8%; inhibition at 6.25 µM (DU145 cells; [2]): 96.2%; inhibition at 12.5 µM (DU145 cells; [1]): 96.6%; inhibition at 12.5 µM (DU145 cells; [2]): 97.3%; inhibition at 25 µM (DU145 cells; [1]): 97%; inhibition at 25 µM (DU145 cells; [2]): 96.2%; inhibition at 50 µM (DU145 cells; [1]): 97.4%; inhibition at 50 µM (DU145 cells; [2]): 98.9%; inhibition at 100 µM (DU145 cells; [1]): 97.9%; inhibition at 100 µM (DU145 cells; [2]): 97.2%; IC50 (DU145 cells; Table 17, read-out: DU145* 50% inhibition concentration): 1280 nM; IC50 (DU145 cells; Table 26, DU145, 72 hours, read-out: 50% viability conc.): 1280 nM; IC50 (DU145 cells; Table 26, DU145, 72 hours, read-out: IC50): 1170 nM; Maximal inhibition % (DU145 cells; Table 26, DU145, 72 hours): 97.55%; OD value 1 (PC-3 cells; 0.400 uM, replicate 1): 0.884; OD value 2 (PC-3 cells; 0.400 uM, replicate 2): 0.866; OD value 1 (PC-3 cells; 0.800 uM, replicate 1): 0.860; OD value 2 (PC-3 cells; 0.800 uM, replicate 2): 0.803; OD value 1 (PC-3 cells; 1.600 uM, replicate 1): 0.794; OD value 2 (PC-3 cells; 1.600 uM, replicate 2): 0.778; OD value 1 (PC-3 cells; 3.200 uM, replicate 1): 0.726; OD value 2 (PC-3 cells; 3.200 uM, replicate 2): 0.756; OD value 1 (PC-3 cells; 6.250 uM, replicate 1): 0.686; OD value 2 (PC-3 cells; 6.250 uM, replicate 2): 0.692; OD value 1 (PC-3 cells; 12.500 uM, replicate 1): 0.617; OD value 2 (PC-3 cells; 12.500 uM, replicate 2): 0.628; OD value 1 (PC-3 cells; 25.000 uM, replicate 1): 0.572; OD value 2 (PC-3 cells; 25.000 uM, replicate 2): 0.583; OD value 1 (PC-3 cells; 50.000 uM, replicate 1): 0.458; OD value 2 (PC-3 cells; 50.000 uM, replicate 2): 0.488; OD value 1 (PC-3 cells; 100.000 uM, replicate 1): 0.246; OD value 2 (PC-3 cells; 100.000 uM, replicate 2): 0.214; inhibition at 0.4 µM (PC-3 cells; 0.400 uM, replicate 1, read-out: % of inhibition 1): 2.1%; inhibition at 0.4 µM (PC-3 cells; 0.400 uM, replicate 2, read-out: % of inhibition 2): 1.92%; inhibition at 0.8 µM (PC-3 cells; 0.800 uM, replicate 1, read-out: % of inhibition 1): 4.8%; inhibition at 0.8 µM (PC-3 cells; 0.800 uM, replicate 2, read-out: % of inhibition 2): 9.05%; inhibition at 1.6 µM (PC-3 cells; 1.600 uM, replicate 1, read-out: % of inhibition 1): 12%; inhibition at 1.6 µM (PC-3 cells; 1.600 uM, replicate 2, read-out: % of inhibition 2): 11.9%; inhibition at 3.2 µM (PC-3 cells; 3.200 uM, replicate 1, read-out: % of inhibition 1): 19.7%; inhibition at 3.2 µM (PC-3 cells; 3.200 uM, replicate 2, read-out: % of inhibition 2): 14.3%; inhibition at 6.25 µM (PC-3 cells; 6.250 uM, replicate 1, read-out: % of inhibition 1): 24.1%; inhibition at 6.25 µM (PC-3 cells; 6.250 uM, replicate 2, read-out: % of inhibition 2): 21.7%; inhibition at 12.5 µM (PC-3 cells; 12.500 uM, replicate 1, read-out: % of inhibition 1): 31.7%; inhibition at 12.5 µM (PC-3 cells; 12.500 uM, replicate 2, read-out: % of inhibition 2): 28.9%; inhibition at 25 µM (PC-3 cells; 25.000 uM, replicate 1, read-out: % of inhibition 1): 36.7%; inhibition at 25 µM (PC-3 cells; 25.000 uM, replicate 2, read-out: % of inhibition 2): 34%; inhibition at 50 µM (PC-3 cells; 50.000 uM, replicate 1, read-out: % of inhibition 1): 49.3%; inhibition at 50 µM (PC-3 cells; 50.000 uM, replicate 2, read-out: % of inhibition 2): 44.5%; inhibition at 100 µM (PC-3 cells; 100.000 uM, replicate 1, read-out: % of inhibition 1): 72.8%; inhibition at 100 µM (PC-3 cells; 100.000 uM, replicate 2, read-out: % of inhibition 2): 75.8%; IC50 (PC-3 cells; Table 18, read-out: PC-3* 50% inhibition concentration): 41300 nM; IC50 (PC-3 cells; Table 26, 72 hours, read-out: 50% viability conc.): 41300 nM
